Assays:
[1] = system: renin-angiotensin system (RAS); test: RSSE-Fingerprinting: blood incubated at 37° C. with added agents, LC-MS/MS quantification of angiotensin peptides; assay type: biochemical, human; settings: for Ang 1-8 steady state equilibrium level compared to control / Ang 1-10 steady state equilibrium level compared to control: heparinised blood, agent added prior to incubation at 37° C., 2 h or 4 h
Method: Blood samples were collected and anti-coagulated with standardised heparin tubes (BD). As indicated in FIGS. 3A-3C, plasma separation has been done for the respective samples before the incubation to reach steady state equilibrium.
Following plasma separation by centrifugation at 3000 rcf for 10 minutes at 4° C., […] of plasma was applied onto an activated and equilibrated SEP-PAK™ C18 cartridge. Sample matrix components were removed by washing three times with 1 ml water. Bound analytes were then eluted with 1 ml of methanol. Eluates were evaporated to dryness and reconstituted in 10% acetonitril/90% water supplemented with 0.1% formic acid followed by subjection to LC-MS/MS analysis.
A vacuum manifold has been used for sample processing. • 1. Activation: EtOH abs. • 2. Equilibration: 2×1 ml H2O • 3. Loading: 0.2-1 ml stabilised plasma • 4. Washing: 3×1 ml H2O • 5. Elution: 1 ml MeOH Quantification and Signal Integration
MRM chromatograms were integrated using Analyst 1.5.1 software provided by Applied Biosystems. The threshold for the quantification limit was set at a signal-to-noise ratio of 10. Integration signals not reaching this ratio were set to zero. Analyte signals were related to internal standard signals and concentration was calculated from initially spiked amounts of internal standards.

ACE2 = ACE2 (Homo sapiens, UniProt Q9BYF1); settings: artificial matrix, vast excess of substrates; cited from earlier work
ACE2, sequence (Q9BYF1 18-805): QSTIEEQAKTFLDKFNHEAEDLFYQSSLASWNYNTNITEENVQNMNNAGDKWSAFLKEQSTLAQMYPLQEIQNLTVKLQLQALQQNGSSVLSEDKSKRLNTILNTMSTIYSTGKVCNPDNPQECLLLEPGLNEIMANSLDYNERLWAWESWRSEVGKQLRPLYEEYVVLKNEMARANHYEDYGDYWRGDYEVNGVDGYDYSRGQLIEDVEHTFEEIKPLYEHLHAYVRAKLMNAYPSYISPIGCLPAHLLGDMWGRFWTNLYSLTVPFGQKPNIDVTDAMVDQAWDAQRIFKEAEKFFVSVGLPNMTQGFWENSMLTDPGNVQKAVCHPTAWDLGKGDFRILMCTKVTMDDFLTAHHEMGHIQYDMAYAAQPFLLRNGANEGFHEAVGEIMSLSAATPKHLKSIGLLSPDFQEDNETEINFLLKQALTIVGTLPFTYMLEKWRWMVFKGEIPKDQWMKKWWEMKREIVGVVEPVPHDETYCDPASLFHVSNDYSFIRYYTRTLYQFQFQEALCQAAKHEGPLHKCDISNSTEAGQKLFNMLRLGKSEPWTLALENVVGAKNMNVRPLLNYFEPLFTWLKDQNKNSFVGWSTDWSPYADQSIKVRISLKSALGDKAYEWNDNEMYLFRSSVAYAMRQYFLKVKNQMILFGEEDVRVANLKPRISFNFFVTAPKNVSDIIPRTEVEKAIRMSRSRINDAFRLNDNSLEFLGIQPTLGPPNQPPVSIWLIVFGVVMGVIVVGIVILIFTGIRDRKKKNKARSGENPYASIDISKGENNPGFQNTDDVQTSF

| Molecule | Ang 1-8 steady state equilibrium level compared to control [1] | Ang 1-10 steady state equilibrium level compared to control [1] | further results |
| --- | --- | --- | --- |
| CC(C)C[C@@H](N)[C@H](O)C(=O)N[C@H](C(=O)N[C@H](C(=O)N[C@@H](CC(=O)O)C(=O)O)C(C)C)C(C)C [Amastatin] | massively increase |  | steady state equilibrium Ang 1-10 level in the presence of ACE2 (ACE2 mediated Ang 1-9 production) ([1]; FIG. 2C1/2C3, 2 h incubation): further increases |
| C[C@H](CS)C(=O)N1CCC[C@H]1C(=O)O [Captopril] | decreased | increased |  |
| NCCCC[C@H](N[C@@H](CCc1ccccc1)C(=O)O)C(=O)N1CCC[C@H]1C(=O)O [Lisinopril] | decreased | increased |  |
| ACE2: recombinant soluble human ACE2 produced by Apeiron Biologics |  |  | shift of RSSE-Fingerprint ([1]; 5 μg/ml enzyme added prior to incubation): shifted as expected |
| angiotensin II (DRVYIHPF; Angiotensin-2; UniProt P01019 25-32, looked up) [Ang 1-8, angiotensin peptide, ACE2 substrate] |  |  | maximal ACE2 conversion rate for Ang 1-8 to Ang 1-7 relative to conversion rate for Ang 1-10 to Ang 1-9 (ACE2): 65 times |

From patent US11079398B2, “Method for measurement of peptidic degradation products of a proteolytic cascade in blood samples” (ATTOQUANT DIAGNOSTICS GMBH, priority 2012, dated 2021)
